Test results as given in patent US11999718B2, “Pyrazole derivatives” (Aptabio Therapeutics Inc., priority 2021, dated 2024).

How the values were obtained:
[1] = system: αSMA; assay: Expression of αSMA induced by TGF-β1 (immunocytochemistry); format: cell-based, human; conditions: TGF-β1 10 ng/ml, 10 μM compound, FIG. 4
From the text: In order to confirm whether the compounds of Synthetic examples of the present invention affect differentiation of fibroblasts into myofibroblasts, the inhibitory effect of the compounds of Synthetic examples on increase in expression of αSMA (biomarker for confirming differentiation into myofibroblasts) induced by TGF-β1 on HFF-1 (human foreskin fibroblast, ATCC), NHLF (normal human lung fibroblast, Lonza), LX-2 (human hepatic stellate cells, Sigma), ARPE19 (human retinal pigment epithelial cell, ATCC), and KEL-FIB (Keloid fibroblast, ATCC) cells was to be observed.
Each cell was suspended in a DMEM medium containing 10% FBS and aliquoted at a concentration of 1×10^4 to 1.5×10^5 cells/well in a 4-well chamber slide (Nunc) and the compounds of Synthetic examples and TGF-β1 (both TGF β1 and TGF-β have the same meaning) were treated to prepare cells to be used for confirming αSMA expression. The confirmation of αSMA expression in the prepared cells was performed by immunocytochemistry as follows. For the cells, fixation with 4% paraformaldehyde for 10 minutes and permeabilization using 0.1% Triton x-100 were performed, and then processes of treating the primary antibody (anti-αSMA Ab, 1:200, at 4° C. for 16 hours) and secondary antibody (Alexa-594 conjugated Ab, 1:800, at a room temperature for 1 hour) against αSMA were progressed in order, and then the expression level of αSMA was observed using a fluorescence microscope.
FIG. 3 observes the effect of treating various compounds of Synthetic examples by 10, 20 and 40 μM, after inducing αSMA expression by treatment of TGF-β1(10 ng/ml) into HFF cells.

[2] = system: IL-6; assay: Expression of IL-6 in pancreatic cancer associated fibroblasts (ELISA); format: cell-based, human; conditions: P.CAF cells, 48 hours treatment, FIG. 5
Experimental: (§1) In order to confirm the effect of the compounds of Synthetic examples of the present invention on inflammation reaction in cancer associated fibroblasts, whether the expression of IL6 and IL8 was inhibited by the compounds of Synthetic examples in pancreatic cancer associated fibroblasts (P.CAF) was observed.
(§2) After inoculating 1.5×10^5 cells in a 6 well plate and then culturing in P.CAF complete media for 48 hours, the compounds of Synthetic examples were treated by 10, 20, 30, 40, 60 and 80 μM for 48 hours according to each condition, and then the expression of IL-6 and IL-8 was confirmed by performing ELISA with Quantkine ELISA kit (R&D systems) as follows.
(§3) 100 μl of the culture solution in which the compounds of Synthetic examples were treated for 48 hours was added to the microplate strip for analysis including a 100 μl assay diluent and left at a room temperature for 2 hours and then the contents were removed, and then it was washed with 400 μl wash buffer 4 times. 200 μl of a human IL-6 or IL-8 conjugate was added and left at a room temperature for 2 hours and then the contents were removed, and then it was washed with 400 μl wash buffer 4 times. 200 μl of substrate solution was added and left at a room temperature for 20 minutes and then 50 μl of stop solution was added, and the absorbance at a wavelength of 450 nm was measured within 30 minutes to confirm the expression level of IL-6 and IL-8.

[3] = system: HFF-1 cells; assay: Collagen gel contraction induced by TGF-β1 in HFF-1 cells; format: cell-based, human; conditions: HFF-1 cells in collagen gel, TGF-β1 10 ng/ml, 72 hours, FIG. 7
From the text: In order to confirm the effect of the compounds of Synthetic examples on differentiation of fibroblasts into myofibroblasts, the inhibitory effect of the compounds of Synthetic examples on the phenomenon of contraction of gel induced by interaction of human foreskin fibroblasts (HFF-1, ATCC) and collagen was observed.
The mixed solution of the HFF-1 cells and collagen (bovine type I collagen) prepared at a concentration of 3×10^6 cells/ml was aliquoted in a 24 well plate, respectively, and then cultured under the condition of 5% CO2, 37° C. for 1 hour to induce gel polymerization. Then, after suspending the gel attached on the plate from the plate using a spoon, a medium comprising TGF-β1 and Synthetic example compounds was added to each well. After culturing for 72 hours, the Synthetic example compounds were treated by 10, 20, 30, 40, 60 and 80 μM to measure the size of the gel, and thereby, the degree of contraction of the gel by drug treatment was confirmed.

[4] = system: IL-8; assay: Expression of IL-8 in pancreatic cancer associated fibroblasts (ELISA); format: cell-based, human; conditions: P.CAF cells, 48 hours treatment, FIG. 6
Experimental: as §1, §2, §3

[5] = system: LX-2 cells; assay: ROS production induced by PMA in LX-2 cells; format: cell-based, human; conditions: FIG. 1
From the text: (§4) In order to confirm the effect of the compounds of Synthetic examples on ROS production from fibroblasts and specific substrate cells, ROS production was induced by stimulation of PMA (phorbol 12-myristate 13-acetate), TGF-β1, palmitate or high concentration-glucose, or the like, in HL-60 cells differentiated into neutrophil cells by DMSO treatment, NHLF (normal human lung fibroblast, Lonza), LX-2 (human hepatic stellate cells, Sigma), ARPE19 (human retinal pigment epithelial cell, ATCC), and KEL-FIB (Keloid fibroblast, ATCC) cells, and under this condition, the inhibitory effect of ROS production of the compounds of Synthetic Examples was observed.
(§5) The NHLF (normal human lung fibroblast, Lonza), LX-2 (human hepatic stellate cells, Sigma), ARPE19 (human retinal pigment epithelial cell, ATCC), KEL-FIB (keloid fibroblast, ATCC) cells were suspended in a culture medium containing 10% FBS and aliquoted on a 96 well plate and then cultured under the condition of 5% CO2, 37° C. for 24 hours. After pre-treating the compounds of Synthetic examples at a concentration of 10, 20, 30, 40, 60 and 80 μM for 30 minutes to 1 hour, the ROS stimulus was treated to each well containing the cells and drug. After additional culturing for 48 hours, the ROS production level was confirmed using L-012 or DCF-DA.

[6] = system: HL-60 cells differentiated into neutrophil cells; assay: ROS production induced by PMA in HL-60 cells differentiated into neutrophil cells; format: cell-based; conditions: Homo sapiens, 0.5 h; differentiated HL-60 cells, compounds 0.5 uM (0.5 mM in the source) for 30 minutes, 200 nM PMA, L-012 luminescence
From the text: as §4
HL-60 cells (human leukemia cells, ATCC) were suspended in a medium containing 1.25% DMSO (RPMI+10% FBS) and cultured under the condition of 5% CO2, 37° C. for 6 days, thereby inducing differentiation into neutrophil cells. […] Then, to each well comprising the cells and drug, 200 nM PMA was treated to induce ROS production, and such ROS production was measured by observing the luminescence level of each well using 100 μM L-012.

[7] = system: NHLF cells; assay: ROS production induced by PMA in NHLF cells; format: cell-based, human; conditions: FIG. 1
From the text: as §4, §5

[8] = system: IL-1β; assay: Expression of IL-1β induced by LPS in human-derived fibroblasts (RT-PCR); format: cell-based; conditions: LX2, NHLF, ARPE19 and KEL-Fib cells, LPS 1 μg/ml 6 hours, 10 μM compound, FIG. 8
Experimental: After inoculating 2×10^5 cells in a 6 well plate and then culturing for 24 hours, they were further cultured in a serum-free culture solution for 16 hours and then the Synthetic example 1 Compound was pre-treated for 20 minutes according to each condition and inflammation reaction was induced with LPS (1 μg/ml) for 6 hours. The expression of IL-1β was confirmed using RT-PCR. Total RNA was separated from the cells using RNeasy mini kit (Qiagen), and for the separated RNA 2 ug, cDNA was synthesized using PrimeScript™ II 1st strand cDNA synthesis kit (TaKaRa) and then PCR was performed with AccuPower® PCR PreMix (Bioneer) to amplify genes. The nucleotide sequences for target primers are as follows. IL-1β (forward: 5′-[…]-3′(SEQ ID NO: 1), reverse: 5′-[…]-3′(SEQ ID NO: 2)); GAPDH (forward: 5′-[…]-3′(SEQ ID NO: 3), reverse: 5′-[…]-3′(SEQ ID NO: 4)); β-actin (forward: 5′-[…]-3′(SEQ ID NO: 5), reverse: 5′-[…]-3′(SEQ ID NO: 6)). The PCR product was confirmed by electrophoresis in 1.5% agarose gel.

[9] = system: N27 cells; assay: ROS production induced by alpha-synuclein preformed fibril (PFF) in N27 cells; format: cell-based, rat; conditions: 0.001 μM compound, 24 hours, CellROX-Deep Red, FIG. 2
Experimental: In order to confirm the effect of the compounds of Synthetic examples on ROS production from dopaminergic neural cells, ROS production was induced by alpha-synuclein preformed fibril (PFF) stimulation on N27 (rat dopaminergic neural cell, Sigma) cells and under this condition, the inhibitory effect of ROS production of the compounds of Synthetic examples was observed.
The N27 cells were cultured in RPMI medium containing 10% FBS, 1 μM angiotensin II, and the prepared cells were aliquoted at a concentration of 4×10^3 cells/well on a 6-well plate. The ROS production stimulus, PFF (preformed fibril) and the compounds of Synthetic examples were treated to the cells. After treating the compounds of Synthetic examples for 24 hours, fluorescence of each well was measured using CellROX-Deep Red reagent, thereby confirming the degree of ROS production.

CN(Cc1ccccc1)C1CCc2nn(-c3ccccn3)c(O)c2C1 (stereo not drawn) [Compound 1, 5-(Benzylmethylamino)-2-(pyridin-2-yl)-4,5,6,7-tetrahydro-2H-indazol-3-ol]
increase in expression of αSMA induced by TGF-β1 ([1]; ARPE19 cells): significantly inhibited | increase in expression of αSMA induced by TGF-β1 ([1]; KEL-FIB cells): significantly inhibited | increase in expression of αSMA induced by TGF-β1 ([1]; LX-2 cells): significantly inhibited | increase in expression of αSMA induced by TGF-β1 ([1]; NHLF cells): significantly inhibited | IL-6 expressed in P.CAF [2]: effectively inhibited | contraction of the gel induced by TGF-β1 [3]: effectively inhibited | IL-8 expressed in P.CAF [4]: effectively inhibited | ROS production induced by PMA [5]: inhibited | inhibition at 0.5 µM [6]: > 70% | ROS production induced by PMA [7]: inhibited | IL-1β induced by LPS [8]: effectively inhibited in a concentration-dependent manner

CN(Cc1ccc(S(C)(=O)=O)cc1)C1CCc2nn(-c3ccccn3)c(O)c2C1 (stereo not drawn) [Compound 12, 5-[(4-Methanesulfonylbenzyl)methylamino]-2-(pyridin-2-yl)-4,5,6,7-tetrahydro-2H-indazol-3-ol]
contraction of the gel induced by TGF-β1 [3]: effectively inhibited | inhibition at 0.5 µM [6]: > 70% | ROS production induced by PFF [9]: effectively inhibited

CN1CCN(C2CCc3nn(-c4ccccn4)c(O)c3C2)CC1 (stereo not drawn) [Compound 16, 5-(4-Methylpiperazin-1-yl)-2-(pyridin-2-yl)-4,5,6,7-tetrahydro-2H-indazol-3-ol]
contraction of the gel induced by TGF-β1 [3]: effectively inhibited | inhibition at 0.5 µM [6]: > 70% | ROS production induced by PFF [9]: effectively inhibited

OCCOCCN1CCN(C2CCc3nn(-c4ccccn4)c(O)c3C2)CC1 (stereo not drawn) [Compound 17, 5-{4-[2-(2-hydroxyethoxy)-ethyl]-piperazin-1-yl}-2-pyridin-2-yl-4,5,6,7-tetrahydro-2H-indazol-3-ol]
ROS production induced by PMA [5]: inhibited | inhibition at 0.5 µM [6]: > 70% | ROS production induced by PMA [7]: inhibited

Oc1c2c(nn1-c1ccccn1)CCC(Nc1ccc(F)c(F)c1)C2 (stereo not drawn) [Compound 32, 5-(3,4-Difluorophenylamino)-2-(pyridin-2-yl)-4,5,6,7-tetrahydro-2H-indazol-3-ol]
inhibition at 0.5 µM [6]: 50 to 70% | ROS production induced by PFF [9]: effectively inhibited

CN1CCN(C2CCc3nn(-c4ccc(C(F)(F)F)cn4)c(O)c3C2)CC1 (stereo not drawn) [Compound 82, 5-(4-Methylpiperazin-1-yl)-2-(5-(trifluoromethyl)pyridin-2-yl)-4,5,6,7-tetrahydro-2H-indazol-3-ol]
inhibition at 0.5 µM [6]: 50 to 70% | ROS production induced by PFF [9]: effectively inhibited
